Test results from patent US20240400560A1, “BICYCLIC HETEROCYCLIC DERIVATIVE HAVING VIRAL GROWTH INHIBITORY ACTIVITY AND PHARMACEUTICAL COMPOSITION CONTAINING SAME” (Shionogi & Co., Ltd., priority 2021, published 2024).
Read-outs that look alike come from different tables or passages of the source.

How the values were obtained:
[1] = biological target: SARS-CoV-2 3CL protease (Severe acute respiratory syndrome coronavirus 2, UniProt P0DTD1); assay: Inhibitory activity test against SARS-CoV-2 3CL proteases; assay type: biochemical
[2] = tested on: SARS-CoV-2; assay: Inhibitory activity of cytopathic effect (CPE) in HEK293T/ACE2-TMPRSS2 cells; assay type: cell-based; conditions: Severe acute respiratory syndrome coronavirus 2, HEK-293T, 72 h
[3] = IC50 (50% SARS-CoV-2 3CL protease inhibitory concentration)
[4] = read-out: EC50 (50% SARS-CoV-2 infected cell death inhibitory concentration)
[5] = read-out: IC50 (50% SARS-CoV-2 3CL protease inhibitory concentration)
[6] = HEK293T/ACE2-TMPRSS2 cells, cultured 3 days, CellTiter-Glo 2.0 luminescence, read-out: EC50 (50% SARS-CoV-2 infected cell death inhibitory concentration)
[7] = 50% SARS-CoV-2 infected cell death inhibitory concentration, HEK293T/ACE2-TMPRSS2 cells, CellTiter-Glo 2.0 after 3 days culture, read-out: EC50

SMILES | IC50 [1, 5] | EC50 [2, 6] | other results
COc1nc(N2[C@@H]3CCC[C@H]2CNC3)cc2c1c(=O)n(-c1cnc3ccccn13)c(=O)n2Cc1cc(F)c(F)c(Cl)c1 [Compound I-0648] |  |  | IC50 [1, 3]: < 100 nM; EC50 [2, 4]: < 100 nM
COc1nc(N2CCC(C)(O)C2)cc2c1c(=O)n(-c1cncc(Cl)c1)c(=O)n2-c1ccc(F)c(Cl)c1 (stereo not shown) [Compound I-1010] | < 100 nM | < 100 nM | 
N#Cc1ccc(Cl)c(-c2cc3c(c(=O)n(-c4cncc(Cl)c4)c(=O)n3Cc3cc(F)c(F)c(F)c3)c3occc23)c1 [Compound I-0863] | 5.3 nM |  | EC50 [2, 7]: 52.5 nM
COc1nc2c(=O)n(Cc3ncn(C)n3)c(=O)n(Cc3cc(Cl)c(F)cc3C)c2cc1-c1nc(C(F)F)ccc1Cl [Compound I-0884] | < 100 nM | < 100 nM | 
COc1nc2c(=O)n(Cc3ncn(C)n3)c(=O)n(Cc3cc(F)c(F)c(Cl)c3)c2cc1-c1cc(C(C)(C)O)ccc1Cl [Compound I-0701] | 5 nM |  | EC50 [2, 7]: 16 nM
COc1nc(N2CCC(O)(C(F)F)C2)cc2c1c(=O)n(-c1cncc(Cl)c1)c(=O)n2-c1ccc(F)c(Cl)c1 (stereo not shown) [Compound I-1036] | < 100 nM | < 100 nM | 
COc1nc2c(=O)n(Cc3ncn(C)n3)c(=O)n(Cc3cc(F)c(F)c(Cl)c3)c2cc1-c1nc(C(=O)NC2COC2)ccc1Cl [Compound I-0885] | < 100 nM | < 100 nM | 
COc1nc(N2CCC3(CCOC3)C2)cc2c1c(=O)n(-c1cnc3cc(F)ccn13)c(=O)n2-c1ccc(F)c(Cl)c1 (stereo not shown) [Compound I-1060] | < 100 nM | < 100 nM | 
COc1nc(N(C)CC(F)(F)F)cc2c1c(=O)n(-c1cnc3cc(F)ccn13)c(=O)n2-c1ccc(F)c(Cl)c1 [Compound I-1006] | < 100 nM | < 100 nM | 
COc1nc(N2CCC(O)(C(F)F)C2)cc2c1c(=O)n(-c1cnc3cc(F)ccn13)c(=O)n2-c1ccc(F)c(Cl)c1 (stereo not shown) [Compound I-1056] | < 100 nM | < 100 nM | 
COc1nc(N2C[C@H](F)[C@@H](F)C2)cc2c1c(=O)n(-c1cnc3cc(F)ccn13)c(=O)n2-c1ccc(F)c(Cl)c1 [Compound I-0748] | < 100 nM | < 100 nM | 
COc1cc(N2[C@@H]3CC[C@H]2CNC3)cc2c1c(=O)n(-c1cnc3ccccn13)c(=O)n2Cc1cc(F)c(F)c(F)c1 [Compound I-0666] |  |  | IC50 [1, 3]: < 100 nM; EC50 [2, 4]: 100 to 1000 nM
O=c1c2c(=O)n(-c3cnc4cc(F)ccn34)c(=O)n(-c3ccc(F)c(Cl)c3)c2cc2n1CC[C@H]1CCCN21 [Compound I-1051] | < 100 nM | 100 to 1000 nM | 
COc1cc(-c2cc3c(C#N)c[nH]c3cc2Cl)cc2c1c(=O)n(Cc1ncn(C)n1)c(=O)n2Cc1cc(F)c(F)c(F)c1 [Compound I-0902] | 8.2 nM |  | EC50 [2, 7]: 104 nM
O=c1c2c(=O)n(-c3cnc4cc(F)ccn34)c(=O)n(-c3ccc(F)c(Cl)c3)c2cc2n1CC[C@@H]1CCCCN21 [Compound I-1048] | 23 nM |  | EC50 [2, 7]: 436 nM
COc1nc2c(=O)n(Cc3ncn(C)n3)c(=O)n(Cc3cc(F)c(F)c(Cl)c3)c2cc1-c1nc(C)ccc1Cl [Compound I-0579] | 5.8 nM |  | EC50 [2, 7]: 12.1 nM
CNC(=O)c1ccc(Cl)c(-c2cc3c(nc2OC)c(=O)n(Cc2ncn(C)n2)c(=O)n3Cc2cc(F)c(F)c(Cl)c2)n1 [Compound I-0878] | 3.9 nM |  | EC50 [2, 7]: 13.7 nM
COCCCc1cc2c(c(OC)n1)c(=O)n(-c1cnc3cc(F)ccn13)c(=O)n2-c1ccc(F)c(Cl)c1 [Compound I-1062] | < 100 nM | < 100 nM | 
COc1nc(N2CC[C@@H](OC)C2)cc2c1c(=O)n(-c1cnc3cc(F)ccn13)c(=O)n2-c1ccc(F)c(Cl)c1 [Compound I-0740] | < 100 nM | < 100 nM | 
Cn1cnc(Cn2c(=O)c3c4nccnc4c(-c4c(F)cc(F)cc4F)cc3n(Cc3cc(F)c(F)c(Cl)c3)c2=O)n1 [Compound I-0571] | < 100 nM | < 100 nM | 
CC(C)Nc1cc2c(c(=O)n(Cc3ncn(C)n3)c(=O)n2Cc2cc(F)c(F)c(Cl)c2)c2nccnc12 [Compound I-0575] | < 100 nM | < 100 nM | 
CNc1cc2c(c(OC)n1)c(=O)n(-c1cnc3cc(F)ccn13)c(=O)n2-c1ccc(F)c(Cl)c1 [Compound I-1042] | < 100 nM | < 100 nM | 
COc1nc(N2C[C@H]3COC[C@H]3C2)cc2c1c(=O)n(-c1cnc3cc(F)ccn13)c(=O)n2-c1ccc(F)c(Cl)c1 [Compound I-0985] | < 100 nM | < 100 nM | 
COc1cc(N2[C@@H]3CC[C@H]2CNC3)cc2c1c(=O)n(-c1cnc3cc(F)ccn13)c(=O)n2Cc1cc(Cl)c(F)cc1C [Compound I-0650] |  |  | IC50 [1, 3]: 1.2 nM; EC50 [2]: 27.3 nM
COc1cc(-c2cn3nncc3cc2Cl)cc2c1c(=O)n(Cc1ncn(C)n1)c(=O)n2Cc1cc(F)c(F)c(F)c1 [Compound I-0914] | < 100 nM | < 100 nM | 

SMILES | IC50 [1, 5] | EC50 [2, 6] | other results
Cc1cnc2c3c(=O)n(Cc4ncn(C)n4)c(=O)n(Cc4cc(F)c(F)c(F)c4)c3cc(-c3cc(C#N)ccc3Cl)n12 [Compound I-0643] | 4.3 nM |  | EC50 [2, 7]: 520 nM
COc1cc(-c2cc3c(C(F)(F)F)n[nH]c3cc2Cl)cc2c1c(=O)n(Cc1ncn(C)n1)c(=O)n2Cc1cc(F)c(F)c(F)c1 [Compound I-0875] | < 100 nM | < 100 nM | 
COc1nc(N2CC[C@@H](F)C2)cc2c1c(=O)n(Cc1ncn(C)n1)c(=O)n2-c1ccc(C)c(Cl)c1 [Compound I-0800] | < 100 nM | < 100 nM | 
Cn1cnc(Cn2c(=O)c3c(=O)n(C)c(N4C[C@@H]5CC[C@H]4C5)cc3n(Cc3cc(F)c(F)c(Cl)c3)c2=O)n1 [Compound I-0930] | < 100 nM | 100 to 1000 nM | 
COc1nc(NC2CCCC2)cc2c1c(=O)n(-c1cnc3cc(F)ccn13)c(=O)n2-c1ccc(F)c(Cl)c1 [Compound I-1046] |  | < 100 nM | IC50 [1, 3]: < 100 nM
COc1cc(-c2nc(C)ccc2Cl)cc2c1c(=O)n(Cc1ncn(C)n1)c(=O)n2Cc1cc(F)c(F)c(F)c1 [Compound I-0826] | < 100 nM | < 100 nM | 
COc1nc2c(=O)n(Cc3ncn(C)n3)c(=O)n(Cc3cc(C#N)c(F)cc3C)c2cc1-c1cc(C#N)ccc1Cl [Compound I-0723] | < 100 nM | < 100 nM | 
[2H]C([2H])([2H])N1CCc2c(ccc(Cl)c2-c2cc(OC)c3c(=O)n(Cc4ncn(C)n4)c(=O)n(Cc4cc(F)c(F)c(F)c4)c3c2)C1=O [Compound I-0876] | < 100 nM | < 100 nM | 
COc1nc(N2[C@@H]3CC[C@H]2CNC3)cc2c1c(=O)n(-c1cnc3ccc(Cl)cn13)c(=O)n2Cc1cc(F)c(F)c(F)c1 [Compound I-0671] |  |  | IC50 [1, 3]: 3.3 nM; EC50 [2]: 21 nM
Cn1c(-c2cc(C#N)ccc2Cl)cc2c(c1=O)c(=O)n(-c1cnc3ccc(F)cn13)c(=O)n2Cc1cc(F)c(F)c(F)c1 [Compound I-0681] | < 100 nM | < 100 nM | 
COc1nc(N2C[C@@H]3C[C@H]2CO3)cc2c1c(=O)n(-c1cnc3cc(F)ccn13)c(=O)n2-c1ccc(F)c(Cl)c1 [Compound I-0943] | < 100 nM | < 100 nM | 
Cn1cnc(Cn2c(=O)c3ncc(N4C[C@H]5C[C@@H]4CN5)nc3n(Cc3cc(F)c(F)c(F)c3)c2=O)n1 [Compound I-0684] | 370 nM |  | EC50 [2, 7]: 4580 nM
COc1nc(N2C[C@@H]3C[C@H]2CO3)cc2c1c(=O)n(-c1cnc3cc(F)ccn13)c(=O)n2-c1ccc(F)c(C(F)F)c1 [Compound I-0960] | < 100 nM | < 100 nM | 
CCN(CC)c1cc2c(c(OC)n1)c(=O)n(-c1cnc3cc(F)ccn13)c(=O)n2-c1ccc(F)c(Cl)c1 [Compound I-1058] | < 100 nM | < 100 nM | 
COc1nc(C(C)C)cc2c1c(=O)n(-c1cnc3cc(F)ccn13)c(=O)n2-c1ccc(F)c(Cl)c1 [Compound I-0976] | < 100 nM | < 100 nM | 
COc1nc(N2CC[C@H](CO)C2)cc2c1c(=O)n(-c1cnc3cc(F)ccn13)c(=O)n2-c1ccc(F)c(Cl)c1 [Compound I-0749] | < 100 nM | < 100 nM | 
COc1nc2c(=O)n(Cc3ncn(C)n3)c(=O)n(Cc3cc(Cl)ccc3Cl)c2cc1-c1cc(C#N)ccc1Cl [Compound I-0713] | < 100 nM | 100 to 1000 nM | 
C=Cc1cc2c(c(OC)n1)c(=O)n(-c1cnc3cc(F)ccn13)c(=O)n2-c1ccc(F)c(Cl)c1 [Compound I-0999] | < 100 nM | 100 to 1000 nM | 
COc1nc(N2CCC(F)(F)C2)cc2c1c(=O)n(-c1cncc(F)c1)c(=O)n2-c1ccc(F)c(Cl)c1 [Compound I-0998] | < 100 nM | < 100 nM | 
COc1nc(N2CCC(F)(F)C2)cc2c1c(=O)n(-c1cnc3cc(F)c(F)cn13)c(=O)n2-c1ccc(F)c(Cl)c1 [Compound I-1009] | < 100 nM | < 100 nM | 
COc1nc(N2CC[C@@H](C#N)C2)cc2c1c(=O)n(-c1cncc(C(F)F)c1)c(=O)n2-c1ccc(F)c(Cl)c1 [Compound I-0945] | < 100 nM | < 100 nM | 
COc1cc(-c2c(Cl)ccc3c2CCN(C)C3=O)cc2c1c(=O)n(Cc1ncn(C)n1)c(=O)n2Cc1cc(F)c(F)c(F)c1 [Compound I-0867] | 1.2 nM |  | EC50 [2, 7]: 47.9 nM
CNC(=O)[C@@H]1CCN(c2cc3c(c(OC)n2)c(=O)n(-c2cnc4cc(F)ccn24)c(=O)n3-c2ccc(F)c(Cl)c2)C1 [Compound I-1000] | < 100 nM | < 100 nM | 
COc1nc(N2CC[C@@H](C#N)C2)cc2c1c(=O)n(-c1cncc(F)c1)c(=O)n2-c1ccc(F)c(Cl)c1 [Compound I-0938] | < 100 nM | < 100 nM | 
COc1nc2c(=O)n(Cc3ncn(C)n3)c(=O)n(Cc3cc(C#N)ccc3C)c2cc1-c1cc(C#N)ccc1Cl [Compound I-0549] | < 100 nM | 100 to 1000 nM | 
